The text below walks through data of article PMC12698583, “Efficacy of sulfonamides targeting malic enzyme in an animal model of Chagas disease” (Frontiers in Pharmacology, 2025).

Data set [1] in a line: Chemical stability at physiological pHs. Type of data set: physicochemical. The note with it: basic pH, 37 °C, 24 h. As to the method:
These conditions simulate stomach acidity, plasma neutrality, and intestinal basicity.
For the chemical stability experiment, the compounds were evaluated under the same conditions with an additional incubation at 37 °C for a period of 24 h. The analysis was performed using an analytical method developed and validated by high-performance liquid chromatography with UV detection (HPLC-UV). Compounds were quantified in different pH media by comparing the areas where the substances were completely soluble with those in the reaction media. The experiments were performed in a triplicate.
These conditions simulate stomach acidity, plasma neutrality, and intestinal basicity. […] For the chemical stability experiment, the compounds were evaluated under the same conditions with an additional incubation at 37°C for a period of 24 hours. The analysis was performed using an analytical method developed and validated by high-performance liquid chromatography with UV detection (HPLC-UV). Compounds were quantified in the different pH media by comparing the areas where the substances were completely soluble with those in the reaction media. The experiments were performed in triplicate.

Data set [2] can be described thus: Host cell cytotoxicity in the image-based assay (total host cells). Particulars: rat, H9c2 rat cardiomyoblasts (infected with T. cruzi), 72 h treatment. As for the experimental part: (§1) Tested compounds were dissolved and serially diluted in dimethylsulfoxide (DMSO) using a half-log dilution across six concentrations. Intermediate plates were prepared by diluting compounds 1:25 in DMEM (Dulbecco’s Modified Eagle Medium) with 10% FBS (Fetal Bovine Serum). The assay was based on [Fredo Naciuk et al. (2020)], with minor modifications. Briefly, T. cruzi trypomastigotes (from LLC-MK2 cultures, 6 days post-infection) were used to infect H9c2 rat cardiomyoblasts overnight (16–18 h) at MOI 1. After washing with PBS, cells were trypsinized and resuspended in DMEM at 2.3 × 10^4 cells/mL. Then, 65 μL per well was plated in 384-well plates and incubated for 24 h (37 °C, 5% CO2, >95% humidity). Subsequently, 7.5 μL of compound solution was added (final [DMSO] 0.4%). After 72 h of treatment, cells were fixed with 4% PFA and stained with Hoechst 33342 (4 μg/mL). Six images per well were acquired using the Operetta system (PerkinElmer) and analyzed with Columbus software to quantify infected cells (≥3 cytoplasmic parasite spots).

Data set [3] has as its system T. cruzi Dm28c strain intracellular form infecting H9c2 rat cardiomyoblasts. As to the kind of experiment: T. cruzi intracellular image-based assay. Type of data set: cell-based, Trypanosoma cruzi. As for the experimental part:
as §1

In data set [4] the target is T1, T. cruzi malic enzyme (TcME) (Trypanosoma cruzi, UniProt Q4DJ68). In words: Malic enzyme (TcME) inhibition assay, diaphorase/resazurin coupled. Type of data set: biochemical. As for the experimental part:
The TcME inhibition assay was performed as previously described, with minor modifications ([Mercaldi et al., 2021]). Briefly, a coupled assay with the enzyme diaphorase and resorufin fluorescence (Ex 545 nm/Em 600 nm) was recorded every 30 s for 6 min in a CLARIOstar plate reader (BMG LabTech). The final concentrations of reagents in the assay were: 0.02 mM NADP+, 0.4 mM L-aspartate, 0.45 nM TcMEc, 1 U/mL diaphorase, and 10 μM resazurin, all in 50 mM Tris-HCl buffer containing 50 mM NaCl and 2 mM MnCl2 at pH 7.5. The reaction was initiated by adding 1.32 mM L-malate.
Background: Alamar Blue is a resazurin reagent that responds to reducing activity.

Data set [5] concerns the target T1, T. cruzi malic enzyme (TcME). Further details: method as in Mercaldi et al. (2021). Particulars: TcME (cytosolic isoform); ref Mercaldi et al. (2021); cited from earlier work.
A further data set concerns H9c2 rat cardiomyoblasts. Further details: method as in Mercaldi et al. (2021) and Peña et al. (2015). The note with it: total host cells; ref Mercaldi et al. (2021) and Peña et al. (2015); cited from earlier work.
Data set [6] deals with T. cruzi Dm28c strain intracellular form infecting H9c2 rat cardiomyoblasts. Particulars: cited from earlier work.

Each structure is given as a SMILES string. “Also recorded” adds a separate entry of the source. Where two headings read alike, the source gives them in different places.

For orientation: CC50 means the concentration at which the toxic effect on the cells reaches its halfway point. Broadly, the IC50 is the concentration that gives 50% inhibition. By EC50 is commonly meant the concentration giving half of the maximal effect.

T1 sequence (Q4DJ68 entry or part of it): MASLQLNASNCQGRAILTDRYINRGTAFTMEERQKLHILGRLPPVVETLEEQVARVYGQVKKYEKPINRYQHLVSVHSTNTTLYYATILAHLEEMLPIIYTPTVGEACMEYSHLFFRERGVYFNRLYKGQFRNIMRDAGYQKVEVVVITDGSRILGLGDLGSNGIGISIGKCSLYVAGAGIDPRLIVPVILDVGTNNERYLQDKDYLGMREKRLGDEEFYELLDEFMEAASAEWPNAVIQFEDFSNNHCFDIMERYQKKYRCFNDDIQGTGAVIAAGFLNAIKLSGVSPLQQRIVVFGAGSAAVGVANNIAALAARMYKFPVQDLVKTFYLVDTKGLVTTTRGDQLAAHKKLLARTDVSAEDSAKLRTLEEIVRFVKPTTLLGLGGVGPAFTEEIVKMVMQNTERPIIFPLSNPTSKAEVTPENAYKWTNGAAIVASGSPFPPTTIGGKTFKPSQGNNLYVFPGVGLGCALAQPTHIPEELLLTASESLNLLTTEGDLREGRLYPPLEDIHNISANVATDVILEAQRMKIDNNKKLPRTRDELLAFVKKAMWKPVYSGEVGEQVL

In data set [1], `CC(C)Oc1ccc(NS(=O)(=O)c2cccc(NC(=O)c3cc(F)cc(F)c3)c2)cc1` [AC-M109, 3,5-difluoro-N-(3-(N-(4-isopropoxyphenyl)sulfamoyl)phenyl)benzamide] registered a Chemical stability not above 40%. The same compound gave a CC50 at 72 h in data set [2] of 12000 nM. Besides, the SI in data set [3] (Selectivity index) is given as 318. The compound also showed an IC50 in data set [4] (concentration necessary to inhibit 50% of T. cruzi Malic enzyme enzymatic activity) of 860 nM.

In the case of `COc1ccc(NS(=O)(=O)c2ccc(NC(=O)c3cc(F)cc(F)c3)cc2)cc1` [AC-R001, 3,5-difluoro-N-(4-(N-(4-methoxyphenyl)sulfamoyl)phenyl)benzamide], the “activity against T. cruzi intracellular forms (in words)” value in data set [3] is reported as “Inactive; also recorded: didn´t affect the parasite”. In data set [4], the “activity against TcME (in words)” value is listed as “not active”.

Consider `COc1ccc(NS(=O)(=O)c2ccc(NC(=O)c3cnccn3)cc2)cc1` [AC-R009, N-(4-(N-(4-methoxyphenyl)sulfamoyl)phenyl)pyrazine-2-carboxamide], for which, in data set [3], the “activity against T. cruzi intracellular forms (in words)” value was “Inactive; also recorded: didn´t affect the parasite”. In data set [4], the “activity against TcME (in words)” value is listed as “not active”.

As to `CC(C)Oc1ccc(NS(=O)(=O)c2ccc(NC(=O)c3cnccn3)cc2)cc1` [AC-R010, N-(4-(N-(4-isopropoxyphenyl)sulfamoyl)phenyl)pyrazine-2-carboxamide], the “activity against T. cruzi intracellular forms (in words)” value in data set [3] was “Inactive; also recorded: didn´t affect the parasite”. The “activity against TcME (in words)” value in data set [4] was “not active”.

With `COc1ccc(NS(=O)(=O)c2cccc(NC(=O)c3cc(F)cc(F)c3)c2)cc1` [TCMDC-143108], in data set [5], the IC50 is 80 nM. Besides, in the data set on H9c2 rat cardiomyoblasts, the CC50 was more than 42000 nM. Besides, the SI in data set [6] (Selectivity index, ref Mercaldi et al. (2021) and Peña et al. (2015)) is more than 84. Moreover, the EC50 in data set [6] (host cells infected by T. cruzi amastigotes, ref Peña et al. (2015)) is 500 nM.

For the compound `COc1ccc(NS(=O)(=O)c2cccc([N+](=O)[O-])c2)cc1` [compound 5, N-(4-methoxyphenyl)-3-nitrobenzenesulfonamide], the “activity against T. cruzi intracellular forms (in words)” value in data set [3] is “not active”. In data set [4], the “activity against TcME (in words)” value was “not active”.

On to `CC(C)Oc1ccc(NS(=O)(=O)c2cccc([N+](=O)[O-])c2)cc1` [compound 6, N-(4-isopropoxyphenyl)-3-nitrobenzenesulfonamide], for which, in data set [3], the “activity against T. cruzi intracellular forms (in words)” value is listed as “not active”. Further, the “activity against TcME (in words)” value in data set [4] is on record as “not active”.

For the compound `COc1ccc(NS(=O)(=O)c2cccc(N)c2)cc1` [compound 9, 3-amino-N-(4-methoxyphenyl)benzenesulfonamide], the “activity against T. cruzi intracellular forms (in words)” value in data set [3] is listed as “not active”. Besides, the “activity against TcME (in words)” value in data set [4] is “not active”.

Turning to `CC(C)Oc1ccc(NS(=O)(=O)c2cccc(N)c2)cc1` [compound 10, 3-amino-N-(4-isopropoxyphenyl)benzenesulfonamide], the “activity against T. cruzi intracellular forms (in words)” value in data set [3] is given as “not active”. For the same compound, the “activity against TcME (in words)” value in data set [4] is given as “not active”.
